# According to patent US12479834B2, “Phenol compound or salt thereof” (TAIHO PHARMACEUTICAL CO., LTD., priority 2019, dated 2025):
# Experiments:
# KRAS G12C mutant = target: T1, KRAS G12C mutant (Homo sapiens, UniProt P01116, G12C); assay: Inhibition of SOS1-mediated nucleotide (GDP-GTP) exchange reaction of KRAS G12C mutant, BODIPY FL GDP fluorescence; format: biochemical; conditions: preincubated 25° C. 4 hours with 25 nM KRAS G12C bound with BODIPY FL GDP; SOS1 100 nM, GppNHp 1 μM, 30 minutes
# T1 construct: 50 μM G12C K-Ras4B (1-169) protein and 1 mM BODIPY® FL GDP; His tag (N, cleaved yes); made in house; host or cells: E. coli BL21 (DE3)
# Method in brief: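 KRAS G12C (1-169) loaded with BODIPY FL GDP (25 nM) was preincubated with compound (5% DMSO) for 4 h at 25 °C. Exchange then ran 30 min with SOS1 (564-1049, 100 nM) and 1 µM GppNHp. IC50 came from the 485/520 nm fluorescence change, normalized to DMSO and no-GppNHp controls.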
# G12C K-Ras4B (1-169) = target: T2, G12C K-Ras4B (1-169) (Homo sapiens, UniProt P01116, G12C); assay: Binding to KRAS G12C mutant, compound binding rate by LC-MS; conditions: final compound concentration 2 μM, 1 μM protein, 2 hours at 25° C.
# T2 construct: G12C K-Ras4B (1-169) protein, which was a KRAS G12C mutant; His tag (N, cleaved yes); made in house; host or cells: E. coli BL21 (DE3)
# Method in brief: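 Covalent labelling at 2 μM final compound on a mix of 1 μM each wild-type and G12C K-Ras4B (1-169) (E. coli-expressed, tag removed) in 1×TBS, 0.1 mM TCEP, 2 h at 25° C., quenched with formic acid. Intact-protein ESI Q-TOF LC-MS; binding rate from adduct vs unbound protein signal, graded A–E in 20% bands.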
IC50 (KRAS G12C mutant),binding rate for G12C K-Ras4B (1-169) (G12C K-Ras4B (1-169)),SMILES
353 nM,A (80% or more),"C=CC(=O)N1CC(NC(=O)c2ccc(CNc3cc(C(C)(C)C)c(Br)cc3O)o2)C1 [Example 65, N-(1-Acryloylazetidin-3-yl)-5-(((4-bromo-5-(tert-butyl)-2-hydroxyphenyl)amino)methyl)furan-2-carboxamide]"
9800 nM,E (less than 20%),"C=CC(=O)N1CC(NC(=O)c2ccc(CNc3cc(C(C)(C)C)ccc3O)o2)C1 [Example 66, N-(1-Acryloylazetidin-3-yl)-5-(((5-(tert-butyl)-2-hydroxyphenyl)amino)methyl)furan-2-carboxamide]"
1030 nM,C (40% or more and less than 60%),"C=CC(=O)N1CC(NC(=O)c2ccc(CNc3cc(C(C)(C)C)c(C#N)cc3O)o2)C1 [Example 67, N-(1-Acryloylazetidin-3-yl)-5-(((5-(tert-butyl)-4-cyano-2-hydroxyphenyl)amino)methyl)furan-2-carboxamide]"
33 nM,A (80% or more),"C=CC(=O)N1CC(NC(=O)c2cnc(CNc3cc(C(C)(C)C)c(C)cc3O)n2C)C1 [Example 68, N-(1-Acryloylazetidin-3-yl)-2-(((5-(tert-butyl)-2-hydroxy-4-methylphenyl)amino)methyl)-1-methyl-1H-imidazole-5-carboxamide]"
89 nM,B (60% or more and less than 80%),"C=CC(=O)N1CC(NC(=O)c2cnc(CNc3cc(C(C)(C)C)c(C=C)cc3O)n2C)C1 [Example 69, N-(1-Acryloylazetidin-3-yl)-2-(((5-(tert-butyl)-2-hydroxy-4-vinylphenyl)amino)methyl)-1-methyl-1H-imidazole-5-carboxamide]"
84 nM,B (60% or more and less than 80%),"C=CC(=O)N1CC(NC(=O)c2cnc(CNc3cc(C(C)(C)C)c(CC)cc3O)n2C)C1 [Example 70, N-(1-Acryloylazetidin-3-yl)-2-(((5-(tert-butyl)-4-ethyl-2-hydroxyphenyl)amino)methyl)-1-methyl-1H-imidazole-5-carboxamide]"
221 nM,C (40% or more and less than 60%),"C=CC(=O)N1CC(NC(=O)c2cnc(CNc3cc4c(cc3O)CCC4(C)C)n2C)C1 [Example 71, N-(1-Acryloylazetidin-3-yl)-2-(((6-hydroxy-3,3-dimethyl-2,3-dihydro-1H-inden-5-yl)amino)methyl)-1-methyl-1H-imidazole-5-carboxamide]"
164 nM,A (80% or more),"C=CC(=O)N1CC(NC(=O)c2c(C)nc(CNc3cc4c(cc3O)CCC4(C)C)n2C)C1 [Example 72, N-(1-Acryloylazetidin-3-yl)-2-(((6-hydroxy-3,3-dimethyl-2,3-dihydro-1H-inden-5-yl)amino)methyl)-1,4-dimethyl-1H-imidazole-5-carboxamide]"
69 nM,B (60% or more and less than 80%),"C=CC(=O)N1CC(NC(=O)c2cnc(CNc3cc(C(C)(C)C)c(Cl)c(F)c3O)n2C)C1 [Example 73, N-(1-Acryloylazetidin-3-yl)-2-(((5-(tert-butyl)-4-chloro-3-fluoro-2-hydroxyphenyl)amino)methyl)-1-methyl-1H-imidazole-5-carboxamide]"
701 nM,E (less than 20%),"C=CC(=O)N1CC(NC(=O)c2cnc(CNc3cc(C(C)(C)C)cc(C)c3O)n2C)C1 [Example 74, N-(1-Acryloylazetidin-3-yl)-2-(((5-(tert-butyl)-2-hydroxy-3-methylphenyl)amino)methyl)-1-methyl-1H-imidazole-5-carboxamide]"
661 nM,E (less than 20%),"C=CC(=O)N1CC(NC(=O)c2cnc(CNc3cc(S(F)(F)(F)(F)F)ccc3O)n2C)C1 [Example 75, N-(1-Acryloylazetidin-3-yl)-2-(((2-hydroxy-5-(pentafluoro-λ6-sulfaneyl)phenyl)amino)methyl)-1-methyl-1H-imidazole-5-carboxamide]"
240 nM,D (20% or more and less than 40%),"C=CC(=O)N1CC(NC(=O)c2c(C(F)(F)F)nc(CNc3cc(C(C)(C)C)c(C)cc3O)n2C(C)C)C1 [Example 77, N-(1-Acryloylazetidin-3-yl)-2-(((5-(tert-butyl)-2-hydroxy-4-methylphenyl)amino)methyl)-1-isopropyl-4-(trifluoromethyl)-1H-imidazole-5-carboxamide]"
3900 nM,D (20% or more and less than 40%),"C=CC(=O)N1CC(NC(=O)c2ccc(C(C)Nc3cc(C(C)(C)C)c(Cl)cc3O)o2)C1 (stereo not shown) [Example 79, N-(1-Acryloylazetidin-3-yl)-5-(1-((5-(tert-butyl)-4-chloro-2-hydroxyphenyl)amino)ethyl)furan-2-carboxamide]"
104 nM,B (60% or more and less than 80%),"C=CC(=O)N1CC(NC(=O)c2cnc(C(C)Nc3cc(C(C)(C)C)c(Cl)cc3O)n2C)C1 (stereo not shown) [Example 80, N-(1-Acryloylazetidin-3-yl)-2-(1-((5-(tert-butyl)-4-chloro-2-hydroxyphenyl)amino)ethyl)-1-methyl-1H-imidazole-5-carboxamide]"
225 nM,B (60% or more and less than 80%),"C=CC(=O)N1CC(NC(=O)c2c(C)nc(C(C)Nc3cc(C(C)(C)C)c(Cl)cc3O)n2C)C1 (stereo not shown) [Example 81, N-(1-Acryloylazetidin-3-yl)-2-(1-((5-(tert-butyl)-4-chloro-2-hydroxyphenyl)amino)ethyl)-1,4-dimethyl-1H-imidazole-5-carboxamide]"
1040 nM,B (60% or more and less than 80%),"C=CC(=O)N1CC(NC(=O)c2cnc(C(C)Nc3cc(C(C)(C)C)c(Cl)c(F)c3O)n2C)C1 (stereo not shown) [Example 82, N-(1-Acryloylazetidin-3-yl)-2-(1-((5-(tert-butyl)-4-chloro-3-fluoro-2-hydroxyphenyl)amino)ethyl)-1-methyl-1H-imidazole-5-carboxamide]"
23 nM,B (60% or more and less than 80%),"C=CC(=O)N1CC(NC(=O)c2cnc(CNc3nc(C(C)(C)C)c(Cl)cc3O)n2C)C1 [Example 83, N-(1-Acryloylazetidin-3-yl)-2-(((6-(tert-butyl)-5-chloro-3-hydroxypyridin-2-yl)amino)methyl)-1-methyl-1H-imidazole-5-carboxamide]"
701 nM,B (60% or more and less than 80%),"CN(C)C/C=C/C(=O)N1CC(NC(=O)c2cnc(CNc3cc(C(C)(C)C)c(Cl)cc3O)s2)C1 [Example 86, (E)-2-(((5-(tert-Butyl)-4-chloro-2-hydroxyphenyl)amino)methyl)-N-(1-(4-(dimethylamino)but-2-enoyl)azetidin-3-yl)thiazole-5-carboxamide]"
193 nM,A (80% or more),"CN(C)C/C=C/C(=O)N1CC(N(C)C(=O)c2ccc(CNc3cc(C(C)(C)C)c(Cl)cc3O)o2)C1 [Example 87, (E)-5-(((5-(tert-Butyl)-4-chloro-2-hydroxyphenyl)amino)methyl)-N-(1-(4-(dimethylamino)but-2-enoyl)azetidin-3-yl)-N-methylfuran-2-carboxamide]"
109 nM,C (40% or more and less than 60%),"Cc1nc(CNc2cc(C(C)(C)C)c(Cl)cc2O)sc1C(=O)NC1CN(C(=O)/C=C/CN(C)C)C1 [Example 88, (E)-2-(((5-(tert-Butyl)-4-chloro-2-hydroxyphenyl)amino)methyl)-N-(1-(4-(dimethylamino)but-2-enoyl)azetidin-3-yl)-4-methylthiazole-5-carboxamide]"
61 nM,A (80% or more),"CN(C)C/C=C/C(=O)N1CC(NC(=O)c2cnc(CNc3cc(C(C)(C)C)c(Cl)cc3O)n2C)C1 [Example 89, (E)-2-(((5-(tert-Butyl)-4-chloro-2-hydroxyphenyl)amino)methyl)-N-(1-(4-(dimethylamino)but-2-enoyl)azetidin-3-yl)-1-methyl-1H-imidazole-5-carboxamide]"

SMILES,IC50 (KRAS G12C mutant),binding rate for G12C K-Ras4B (1-169) (G12C K-Ras4B (1-169))
"C=CC(=O)N1CC(NC(=O)c2cnc(CNc3nc([Si](C)(C)C)c(Cl)cc3O)n2C)C1 [Example 84, N-(1-Acryloylazetidin-3-yl)-2-(((5-chloro-3-hydroxy-6-(trimethylsilyl)pyridin-2-yl)amino)methyl)-1-methyl-1H-imidazole-5-carboxamide]",63 nM,A (80% or more)
"C=CC(=O)N1CC(NC(=O)c2c(C)nc(CNc3nc([Si](C)(C)C)c(Cl)cc3O)n2C)C1 [Example 85, N-(1-Acryloylazetidin-3-yl)-2-(((5-chloro-3-hydroxy-6-(trimethylsilyl)pyridin-2-yl)amino)methyl)-1,4-dimethyl-1H-imidazole-5-carboxamide]",39 nM,C (40% or more and less than 60%)
